Data published in patent US20150218212A1, “FLUORINATED EPOXYKETONE-BASED TETRAPEPTIDE COMPOUNDS AND USES THEREOF AS PROTEASOME INHIBITORS” (FLUORINOV PHARMA INC., priority 2012, published 2015).

Legend:
Assay type in all cases: cell-based, human
HL-60(TB) = test: NCI screening panel, HL-60(TB) (Leukemia)
Experimental: (§1) Representative compounds of Formula I were screened using the National Cancer Institute (NCI) screening panel, which consists of a panel of human tumor cell lines, representing leukemia, melanoma, and cancers of the lung, colon, ovary, breast, prostate and renal system.
(§2) After 24 h, two plates of each cell line are fixed in situ with TCA, to represent a measurement of the cell population for each cell line at the time of drug addition (Tz). Experimental drugs are solubilised in dimethyl sulfoxide at 400-fold the desired final maximum test concentration and stored frozen prior to use. At the time of drug addition, an aliquot of frozen concentrate is thawed and diluted to twice the desired final maximum test concentration with complete medium containing 50 μg/mL gentamicin. Additional four, 10-fold or ½ log serial dilutions are made to provide a total of five drug concentrations plus control. Aliquots of 100 μl of these different drug dilutions are added to the appropriate microtiter wells already containing 100 μl of medium, resulting in the required final drug concentrations.
(§3) Following drug addition, the plates are incubated for an additional 48 h at 37° C., 5% CO2, 95% air, and 100% relative humidity. For adherent cells, the assay is terminated by the addition of cold TCA (trichloroacetic acid). Cells are fixed in situ by the gentle addition of 50 μl of cold 50% (w/v) TCA (final concentration, 10% TCA) and incubated for 60 minutes at 4° C. The supernatant is discarded, and the plates are washed five times with tap water and air dried. Sulforhodamine B (SRB) solution (100 μl) at 0.4% (w/v) in 1% acetic acid is added to each well, and plates are incubated for 10 minutes at room temperature. After staining, unbound dye is removed by washing five times with 1% acetic acid and the plates are air dried. Bound stain is subsequently solubilised with 10 mM trizma base, and the absorbance is read on an automated plate reader at a wavelength of 515 nm. For suspension cells, the methodology is the same except that the assay is terminated by fixing settled cells at the bottom of the wells by gently adding 50 μl of 80% TCA (final concentration, 16% TCA). Using the seven absorbance measurements [time zero, (Tz), control growth, (C), and test growth in the presence of drug at the five concentration levels (Ti)], the percentage growth is calculated at each of the drug concentrations levels. Percentage growth inhibition is calculated as: [(Ti−Tz)/(C−Tz)]×100 for concentrations for which Ti>/=Tz and [(Ti−Tz)/Tz]×100 for concentrations for which Ti<Tz.
(§4) Three dose response parameters are calculated for each experimental agent. Growth inhibition of 50% (GI50) is calculated from [(Ti−Tz)/(C−Tz)]×100=50, which is the drug concentration resulting in a 50% reduction in the net protein increase (as measured by SRB staining) in control cells during the drug incubation. The drug concentration resulting in total growth inhibition (TGI) is calculated from Ti=Tz. The LC50 (concentration of drug resulting in a 50% reduction in the measured protein at the end of the drug treatment as compared to that at the beginning) indicating a net loss of cells following treatment is calculated from [(Ti−Tz)/Tz]×100=−50. Values are calculated for each of these three parameters if the level of activity is reached. However, if the effect is not reached or is exceeded, the value for that parameter is expressed as greater or less than the maximum or minimum concentration tested.

SN12C = test: NCI screening panel, SN12C (Renal Cancer)
Experimental: as §1, §2, §3, §4

HOP-62 = test: NCI screening panel, HOP-62 (Non-Small Cell Lung Cancer)
Experimental: as §1, §2, §3, §4

SK-MEL-5 = test: NCI screening panel, SK-MEL-5 (Melanoma)
Experimental: as §1, §2, §3, §4

HT29 = test: NCI screening panel, HT29 (Colon Cancer)
Experimental: as §1, §2, §3, §4

SNB-75 = test: NCI screening panel, SNB-75 (CNS Cancer)
Experimental: as §1, §2, §3, §4

SF-295 = test: NCI screening panel, SF-295 (CNS Cancer)
Experimental: as §1, §2, §3, §4

MDA-MB-435 = test: NCI screening panel, MDA-MB-435 (Melanoma)
Experimental: as §1, §2, §3, §4

CAKI-1 = test: NCI screening panel, CAKI-1 (Renal Cancer)
Experimental: as §1, §2, §3, §4

SF-539 = test: NCI screening panel, SF-539 (CNS Cancer)
Experimental: as §1, §2, §3, §4

BT-549 = test: NCI screening panel, BT-549 (Breast Cancer)
Experimental: as §1, §2, §3, §4

NCI-H322M = test: NCI screening panel, NCI-H322M (Non-Small Cell Lung Cancer)
Experimental: as §1, §2, §3, §4

DU-145 = test: NCI screening panel, DU-145 (Prostate Cancer)
Experimental: as §1, §2, §3, §4

MCF7 = test: NCI screening panel, MCF7 (Breast Cancer)
Experimental: as §1, §2, §3, §4

OVCAR-8 = test: NCI screening panel, OVCAR-8 (Ovarian Cancer)
Experimental: as §1, §2, §3, §4

RXF 393 = test: NCI screening panel, RXF 393 (Renal Cancer)
Experimental: as §1, §2, §3, §4

UO-31 = test: NCI screening panel, UO-31 (Renal Cancer)
Experimental: as §1, §2, §3, §4

OVCAR-5 = test: NCI screening panel, OVCAR-5 (Ovarian Cancer)
Experimental: as §1, §2, §3, §4

U251 = test: NCI screening panel, U251 (CNS Cancer)
Experimental: as §1, §2, §3, §4

CC(C)C[C@H](NC(=O)[C@H](COC(F)F)NC(=O)[C@H](COC(F)F)NC(=O)[C@H](COC(F)F)NC(=O)CN1CCOCC1)C(=O)[C@@]1(C)CO1 [Example 17, (2S)-3-(difluoromethoxy)-N-[(1S)-1-(difluoromethoxymethyl)-2-[[(1S)-1-(difluoro-methoxymethyl)-2-[[(1S)-3-methyl-1-[(2R)-2-methyloxirane-2-carbonyl]butyl]amino]-2-oxo-ethyl]amino]-2-oxo-ethyl]-2-[(2-mor-pholinoacetyl)amino]-propanamide]
Log10GI50 (HL-60(TB)): −6.70 | Log10LC50 (HL-60(TB)): >−4.00 | Log10TGI50 (HL-60(TB)): −5.87 | Log10GI50 (SN12C): −6.71 | Log10LC50 (SN12C): −5.06 | Log10TGI50 (SN12C): −6.08 | Log10GI50 (HOP-62): −6.82 | Log10LC50 (HOP-62): >−4.00 | Log10TGI50 (HOP-62): >−4.00 | Log10GI50 (SK-MEL-5): −7.10 | Log10LC50 (SK-MEL-5): −6.01 | Log10TGI50 (SK-MEL-5): −6.53 | Log10GI50 (HT29): −7.30 | Log10LC50 (HT29): >−4.00 | Log10TGI50 (HT29): −6.28 | Log10GI50 (SNB-75): −7.15 | Log10LC50 (SNB-75): >−4.00 | Log10TGI50 (SNB-75): −6.39 | Log10GI50 (SF-295): −6.82 | Log10LC50 (SF-295): −5.37 | Log10TGI50 (SF-295): −6.20 | Log10GI50 (MDA-MB-435): −7.42 | Log10LC50 (MDA-MB-435): −6.29 | Log10TGI50 (MDA-MB-435): −6.81 | Log10GI50 (CAKI-1): −5.54 | Log10LC50 (CAKI-1): >−4.00 | Log10TGI50 (CAKI-1): −4.81 | Log10GI50 (SF-539): −7.38 | Log10TGI50 (SF-539): −6.67 | Log10GI50 (BT-549): −7.11 | Log10LC50 (BT-549): >−4.00 | Log10TGI50 (BT-549): −6.43 | Log10GI50 (NCI-H322M): −6.58 | Log10LC50 (NCI-H322M): −4.92 | Log10TGI50 (NCI-H322M): −5.73 | Log10GI50 (DU-145): −7.07 | Log10LC50 (DU-145): >−4.00 | Log10TGI50 (DU-145): −4.84 | Log10GI50 (MCF7): −7.57 | Log10LC50 (MCF7): >−4.00 | Log10TGI50 (MCF7): >−4.00 | Log10GI50 (OVCAR-8): −6.31 | Log10LC50 (OVCAR-8): >−4.00 | Log10TGI50 (OVCAR-8): −5.25 | Log10GI50 (RXF 393): −6.48 | Log10LC50 (RXF 393): −5.41 | Log10TGI50 (RXF 393): −5.94 | Log10GI50 (UO-31): −5.40 | Log10LC50 (UO-31): −4.00 | Log10TGI50 (UO-31): −4.65 | Log10GI50 (OVCAR-5): −6.55 | Log10LC50 (OVCAR-5): >−4.00 | Log10TGI50 (OVCAR-5): −5.71 | Log10GI50 (U251): −7.26 | Log10LC50 (U251): −5.25 | Log10TGI50 (U251): −6.32
